IC50 data for 29 compounds are collected here from patent US8536175B2, “Quinoxaline carboxamide derivatives as protein tyrosine kinase inhibitors” (Novartis AG, priority 2008, dated 2013).

This assay addresses FGFR3 kinase (Homo sapiens (Human), UniProt P22607, K650E). Kind of assay: FGFR3 kinase inhibition (protein kinase activity assays). The format is biochemical. The method, then:
generic assay set-up: Enzyme activities were measured by mixing 10 μL of a 3-fold concentrated compound solution or control with 10 μL of the corresponding substrate mixture (peptidic substrate, ATP and [γ^33P]ATP). The reactions were initiated by addition of 10 μL of a 3-fold concentrated solution of the respective enzyme in assay buffer. […] Filter binding (FB) method: FB assays were carried out in 96-well plates at room temperature for 10 min in a finial volume of 30 μL including the components as indicated in section above. […] After spotting, vacuum was connected and each well rinsed with 200 μL 0.5% H3PO4. Free membranes were removed and washed 4 times on a shaker with 1% H3PO4 and once with ethanol. Membranes were dried and overlaid with addition of 10 μL/well of a scintillation fluid. The plates were eventually sealed and counted in a microplate scintillation counter. IC50 values were calculated by linear regression analysis of the percentage inhibition of the compound.
generic assay set-up: The assay has been run at room temperature on a liquid handling robot. […] After an incubation time of 45 min in the dark, the plates were transferred into a fluorescence reader for counting.
Compounds of formula (I) are assayed to measure their capacity to inhibit FGFR3 kinase as described above.

The mark [1] stands for this setting: read-out: rating (FGFR3 kinase IC50).
[2] abbreviates: average of 2 independent measurements, * single value, read-out: FGFR3 IC50.

pIC50: −log10 of the molar value. Read-outs that look alike come from different tables or passages of the source.

Sequence of FGFR3 kinase (P22607 23-806 K650E): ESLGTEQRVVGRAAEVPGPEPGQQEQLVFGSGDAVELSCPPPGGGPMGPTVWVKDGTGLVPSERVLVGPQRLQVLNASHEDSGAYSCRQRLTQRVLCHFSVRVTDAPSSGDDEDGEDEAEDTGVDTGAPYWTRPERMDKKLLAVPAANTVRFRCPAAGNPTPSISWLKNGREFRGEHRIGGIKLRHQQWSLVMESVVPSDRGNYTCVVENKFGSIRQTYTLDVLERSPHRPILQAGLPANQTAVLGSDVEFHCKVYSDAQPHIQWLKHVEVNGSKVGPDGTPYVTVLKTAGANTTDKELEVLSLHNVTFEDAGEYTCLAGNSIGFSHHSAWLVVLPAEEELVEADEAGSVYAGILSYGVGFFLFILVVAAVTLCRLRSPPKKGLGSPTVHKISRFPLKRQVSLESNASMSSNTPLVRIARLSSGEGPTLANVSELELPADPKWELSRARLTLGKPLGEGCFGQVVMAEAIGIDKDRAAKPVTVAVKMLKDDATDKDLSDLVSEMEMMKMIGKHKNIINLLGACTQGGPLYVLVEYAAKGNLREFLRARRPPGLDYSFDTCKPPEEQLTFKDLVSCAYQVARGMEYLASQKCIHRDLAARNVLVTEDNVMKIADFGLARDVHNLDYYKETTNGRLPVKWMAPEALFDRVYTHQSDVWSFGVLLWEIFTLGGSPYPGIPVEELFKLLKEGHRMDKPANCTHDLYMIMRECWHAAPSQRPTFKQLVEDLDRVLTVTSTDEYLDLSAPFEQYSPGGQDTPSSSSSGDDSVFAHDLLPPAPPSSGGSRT

For the compound `COc1cc(OC)c(Cl)c(-c2ccc(C(=O)Nc3nnc[nH]3)c3nccnc23)c1Cl` [Example 163, 8-(2,6-Dichloro-3,5-dimethoxy-phenyl)-quinoxaline-5-carboxylic acid (4H-[1,2,4]triazol-3-yl)-amide], the pIC50 under setting [1] is 4.30 to 6.30.

`COc1cc(OC)c(Cl)c(-c2ccc(C(=O)Nc3ccc(C(N)=O)cc3)c3nccnc23)c1Cl` [Example 3, 8-(2,6-Dichloro-3,5-dimethoxy-phenyl)-quinoxaline-5-carboxylic acid (4-carbamoyl-phenyl)-amide]: the pIC50 under setting [2] was under 5.00.

For `COc1cc(OC)c(Cl)c(-c2ccc(C(=O)Nc3ccc(O)cc3)c3nccnc23)c1Cl` [Example 7, 8-(2,6-Dichloro-3,5-dimethoxy-phenyl)-quinoxaline-5-carboxylic acid (4-hydroxyphenyl)-amide], under setting [1], the pIC50 is 4.30 to 6.30.

Consider `CCN1CCN(Cc2ccc(NC(=O)c3ccc(-c4c(Cl)c(OC)cc(OC)c4Cl)c4cccnc34)cn2)CC1` [Example 169, 5-(2,6-Dichloro-3,5-dimethoxy-phenyl)-quinoline-8-carboxylic acid [6-(4-ethyl-piperazin-1-ylmethyl)-pyridin-3-yl]-amide], for which, under setting [1], the pIC50 is 6.30 to 7.00.

For the compound `Cc1cccc(C)c1-c1ccc(C(=O)Nc2nc(CN3CCN(C)CC3)c[nH]2)c2nccnc12` [Example 77, 8-(2,6-Dimethyl-phenyl)-quinoxaline-5-carboxylic acid [4-(4-methyl-piperazin-1-ylmethyl)-1H-imidazol-2-yl]-amide], under setting [2], the pIC50 was under 5.00.

Regarding `CCN1CCN(Cc2ccc(NC(=O)c3ccc(-c4cc(OC)cc(OC)c4)c4nccnc34)nc2)CC1` [Example 115, 8-(3,5-Dimethoxy-phenyl)-quinoxaline-5-carboxylic acid [5-(4-ethyl-piperazin-1-ylmethyl)-pyridin-2-yl]-amide], under setting [1], the pIC50 was 4.30 to 6.30.

`COc1cc(OC)c(Cl)c(-c2ccc(C(=O)Nc3ccc(CN(C)CCN(C)C)cn3)c3nccnc23)c1Cl` [Example 81, 8-(2,6-Dichloro-3,5-dimethoxy-phenyl)-quinoxaline-5-carboxylic acid (5-{[(2-dimethylamino-ethyl)-methyl-amino]-methyl}-pyridin-2-yl)-amide]: the negative logarithm of the IC50 (pIC50) under setting [1] is over 7.00.

For `CCN1CCN(c2ccc(NC(=O)c3ccc(-c4c(C)cccc4C)c4nccnc34)cc2)CC1` [Example 72, 8-(2,6-Dimethyl-phenyl)-quinoxaline-5-carboxylic acid [4-(4-ethyl-piperazin-1-yl)-phenyl]-amide], under setting [1], the pIC50 was 4.30 to 6.30.

`COc1cc(OC)c(Cl)c(-c2ccc(C(=O)Nc3ccc(OCCN(C)C)cc3)c3nccnc23)c1Cl` [Example 5, 8-(2,6-Dichloro-3,5-dimethoxy-phenyl)-quinoxaline-5-carboxylic acid [4-(2-dimethylamino-ethoxy)-phenyl]-amide]: the pIC50 under setting [1] was over 7.00.

On to `COc1cc(OC)c(Cl)c(-c2ccc(C(=O)Nc3ccc(CN4CCNCC4)nc3)c3ncccc23)c1Cl` [Example 171, 5-(2,6-Dichloro-3,5-dimethoxy-phenyl)-quinoline-8-carboxylic acid (6-piperazin-1-ylmethyl-pyridin-3-yl)-amide], for which the pIC50 under setting [1] is 4.30 to 6.30.

Take `COc1cc(OC)c(Cl)c(-c2ccc(C(=O)Nc3ccn(CCN(C)C)c3)c3nccnc23)c1Cl` [Example 121, 8-(2,6-Dichloro-3,5-dimethoxy-phenyl)-quinoxaline-5-carboxylic acid [1-(2-dimethylamino-ethyl)-1H-pyrrol-3-yl]-amide]: under setting [1], the pIC50 is 4.30 to 6.30.

Turning to `COc1cc(OC)c(Cl)c(-c2ccc(C(=O)Nc3cnc[nH]3)c3ncccc23)c1Cl` [Example 162, 5-(2,6-Dichloro-3,5-dimethoxy-phenyl)-quinoline-8-carboxylic acid (3H-imidazol-4-yl)-amide], the pIC50 under setting [1] was 6.30 to 7.00.

`COc1cc(OC)c(Cl)c(-c2ccc(C(=O)Nc3ccc(N4CCN(C(C)C)CC4)nc3)c3nccnc23)c1Cl` [Example 33, 8-(2,6-Dichloro-3,5-dimethoxy-phenyl)-quinoxaline-5-carboxylic acid [6-(4-isopropyl-piperazin-1-yl)-pyridin-3-yl]-amide]: the pIC50 under setting [1] was over 7.00.

With `COc1cc(OC)c(Cl)c(-c2ccc(C(=O)Nc3ccc(CN4CCN(C)CC4)cn3)c3ncccc23)c1Cl` [Example 164, 5-(2,6-Dichloro-3,5-dimethoxy-phenyl)-quinoline-8-carboxylic acid [5-(4-methyl-piperazin-1-ylmethyl)-pyridin-2-yl]amide], the pIC50 under setting [1] is over 7.00.

For `COc1cc(OC)cc(-c2ccc(C(=O)Nc3ccc(CN4CCNCC4)cn3)c3nccnc23)c1` [Example 117], the pIC50 under setting [1] is 4.30 to 6.30.

Turning to `COc1cc(OC)c(Cl)c(-c2ccc(C(=O)Nc3ncc[nH]3)c3ncccc23)c1Cl` [Example 161, 5-(2,6-Dichloro-3,5-dimethoxy-phenyl)-quinoline-8-carboxylic acid (1H-imidazol-2-yl)-amide], the pIC50 under setting [1] was over 7.00.

`COc1cc(OC)c(Cl)c(-c2ccc(C(=O)Nc3ccc(CN4CCS(=O)(=O)CC4)cn3)c3nccnc23)c1Cl` [Example 104, 8-(2,6-Dichloro-3,5-dimethoxy-phenyl)-quinoxaline-5-carboxylic acid [5-(1,1-dioxothiomorpholin-4-ylmethyl)-pyridin-2-yl]-amide]: the pIC50 under setting [1] was 6.30 to 7.00.

Regarding `COc1cc(OC)c(F)c(-c2ccc(C(=O)Nc3ccc(CN4CCS(=O)(=O)CC4)cn3)c3nccnc23)c1F` [Example 140, 8-(2,6-Difluoro-3,5-dimethoxy-phenyl)-quinoxaline-5-carboxylic acid [5-(1,1-dioxo-thiomorpholin-4-ylmethyl)-pyridin-2-yl]-amide], under setting [1], the pIC50 is over 7.00.

On to `COc1cc(OC)c(F)c(-c2ccc(C(=O)Nc3nc(CN4CCN(C)CC4)c[nH]3)c3nccnc23)c1F` [Example 141, 8-(2,6-Difluoro-3,5-dimethoxy-phenyl)-quinoxaline-5-carboxylic acid [4-(4-methyl-piperazin-1-ylmethyl)-1H-imidazol-2-yl]-amide], for which, under setting [1], the pIC50 was over 7.00.

For the compound `COc1cc(OC)c(Cl)c(-c2ccc(C(=O)Nc3nnc[nH]3)c3nccnc23)c1Cl` [Example 17, 8-(2,6-Dichloro-3,5-dimethoxy-phenyl)-quinoxaline-5-carboxylic acid (4H-[1,2,4]triazol-3-yl)-amide], under setting [2], the pIC50 is under 5.00.

With `CCN1CCN(Cc2ccc(NC(=O)c3ccc(-c4c(F)c(OC)cc(OC)c4F)c4nccnc34)cn2)CC1` [Example 88, 8-(2,6-Difluoro-3,5-dimethoxy-phenyl)-quinoxaline-5-carboxylic acid [6-(4-ethyl-piperazin-1-ylmethyl)-pyridin-3-yl]-amide], the pIC50 under setting [1] is over 7.00.

Regarding `CCN1CCN(c2ccc(NC(=O)c3ccc(-c4c(Cl)c(OC)cc(OC)c4Cl)c4cccnc34)cc2)CC1` [Example 159, 5-(2,6-Dichloro-3,5-dimethoxy-phenyl)-quinoline-8-carboxylic acid [4-(4-ethyl-piperazin-1-yl)-phenyl]-amide], the pIC50 under setting [1] was over 7.00.

Regarding `CCN1CCN(Cc2ccc(NC(=O)c3ccc(-c4c(Cl)c(OC)cc(OC)c4Cl)c4cccnc34)nc2)CC1` [Example 165, 5-(2,6-Dichloro-3,5-dimethoxy-phenyl)-quinoline-8-carboxylic acid [5-(4-ethyl-piperazin-1-ylmethyl)-pyridin-2-yl]-amide], under setting [1], the pIC50 is 6.30 to 7.00.

Take `COc1ccc(Cl)c(-c2ccc(C(=O)Nc3ccc(OCCN(C)C)cc3)c3nccnc23)c1` [Example 65, 8-(2-Chloro-5-methoxy-phenyl)-quinoxaline-5-carboxylic acid [4-(2-dimethylamino-ethoxy)-phenyl]-amide]: the pIC50 under setting [1] was 4.30 to 6.30.

As to `CCN1CCN(Cc2ccc(NC(=O)c3ccc(-c4cc(C)c[n+]([O-])c4C)c4nccnc34)nc2)CC1` [Example 99, 8-(2,5-Dimethyl-1-oxy-pyridin-3-yl)-quinoxaline-5-carboxylic acid [5-(4-ethyl-piperazin-1-ylmethyl)-pyridin-2-yl]-amide], the pIC50 under setting [2] was under 5.00.

In the case of `COc1cc(OC)c(F)c(-c2ccc(C(=O)Nc3ccc(CN4CCN(C)CC4)nc3)c3nccnc23)c1F` [Example 89, 8-(2,6-Difluoro-3,5-dimethoxy-phenyl)-quinoxaline-5-carboxylic acid [6-(4-methyl-piperazin-1-ylmethyl)-pyridin-3-yl]-amide], the pIC50 under setting [1] is over 7.00.

Take `COc1cc(OC)c(Cl)c(-c2ccc(C(=O)Nc3ccc(CN4CCN(C)CC4)nc3)c3ncccc23)c1Cl` [Example 168, 5-(2,6-Dichloro-3,5-dimethoxy-phenyl)-quinoline-8-carboxylic acid [6-(4-methyl-piperazin-1-ylmethyl)-pyridin-3-yl]amide]: the negative logarithm of the IC50 (pIC50) under setting [1] is 6.30 to 7.00.

With `COc1cc(OC)c(Cl)c(-c2ccc(C(=O)Nc3cccnc3)c3ncc(N(C)CCN(C)C)nc23)c1Cl` [Example 87, 8-(2,6-Dichloro-3,5-dimethoxy-phenyl)-2-[(2-dimethylamino-ethyl)-methylamino]-quinoxaline-5-carboxylic acid pyridin-3-ylamide], under setting [1], the pIC50 was 4.30 to 6.30.

On to `COc1cc(OC)c(Cl)c(-c2ccc(C(=O)Nc3ccc(N(C)C4CCN(C)CC4)nc3)c3nccnc23)c1Cl` [Example 37, 8-(2,6-Dichloro-3,5-dimethoxy-phenyl)-quinoxaline-5-carboxylic acid {6-[methyl-(1-methyl-piperidin-4-yl)-amino]-pyridin-3-yl}-amide], for which the pIC50 under setting [1] is over 7.00.
